Starred links: 1 amine or outer side, 2 acyl side, 3 side chain; linkers in the order of their positions; H or OH if unused. Positions of bridges follow the written chain, without caps; N, C: chain ends. Non-standard residues stand in square brackets, D forms with d. Residues, ends and D or L forms follow the SMILES beside them. *: point of attachment. Leu(3R-OH,Nα-propionyl) = CCC(=O)N[C@H](C(=O)*)[C@H](O)C(C)C; X1 = CC(C)[C@@H](O[*:3])[C@H](N[*:1])C(=O)[*:2]; X2 = CC(C)[C@H](O[*:3])[C@@H](N[*:1])C(=O)[*:2]; NMeaThr = CN[C@H](C(=O)O)[C@H](C)O; dPhLac = O=C(O)[C@H](O)Cc1ccccc1; NMeA = CN[C@@H](C)C(=O)O; NMeDha = C=C(NC)C(=O)O
Tests used:
wild type Gα13 with Gβγ2 = target: T1, wild type Gα13 with Gβγ2 (Homo sapiens, UniProt Q14344); test: Split luciferase complementation, Gα interaction with Gβγ2; format: cell-based; details: FIG. 1A
T1 construct: expressed in transfected cells; host or cells: HEK-293
T1 sequence (P59768 2-68): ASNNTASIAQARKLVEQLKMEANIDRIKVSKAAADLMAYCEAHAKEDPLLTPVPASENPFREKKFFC
T1 sequence (Q14344 whole entry): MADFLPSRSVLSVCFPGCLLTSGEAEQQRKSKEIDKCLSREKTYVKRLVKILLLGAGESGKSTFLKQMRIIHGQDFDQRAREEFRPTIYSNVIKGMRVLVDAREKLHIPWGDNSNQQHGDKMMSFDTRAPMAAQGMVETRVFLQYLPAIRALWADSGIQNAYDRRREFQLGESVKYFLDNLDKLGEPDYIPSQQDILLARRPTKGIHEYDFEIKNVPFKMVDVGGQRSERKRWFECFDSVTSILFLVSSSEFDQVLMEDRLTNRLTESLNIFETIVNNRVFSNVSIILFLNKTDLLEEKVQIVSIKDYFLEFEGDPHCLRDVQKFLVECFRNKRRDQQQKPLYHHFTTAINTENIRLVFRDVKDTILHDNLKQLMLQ
T1 sequence (P62873 whole entry, further chain): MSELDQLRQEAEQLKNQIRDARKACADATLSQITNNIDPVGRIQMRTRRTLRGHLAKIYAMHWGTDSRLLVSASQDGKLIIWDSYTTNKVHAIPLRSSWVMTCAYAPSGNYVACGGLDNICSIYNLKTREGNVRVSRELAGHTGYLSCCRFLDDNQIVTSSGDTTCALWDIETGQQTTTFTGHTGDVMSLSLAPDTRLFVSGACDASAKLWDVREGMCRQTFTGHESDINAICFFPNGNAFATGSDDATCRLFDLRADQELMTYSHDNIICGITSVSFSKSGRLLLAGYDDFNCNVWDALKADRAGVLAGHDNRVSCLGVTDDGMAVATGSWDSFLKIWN
Source text: (§1) (FIG. 1A-1C) depicts the effect of FR on the activity state of Gα subunits as determined by interaction with Gβγ or RGS domains in split luciferase complementation assays. FIG. 1A Effect of FR on interaction of Gβγ2 with the indicated wild type (WT) or mutant constitutively active (Q/L) forms of Gα (q) or Gα13 (13). * p<0.01; ** p<0.05. FIG. 1B Potency of FR as a driver of interaction of Gβγ2 with wild type or mutant constitutively active Gαq. FIG. 1C Potency of FR as inhibitor of interaction of RGS2 with mutant constitutively active (Q/L) Gαq, or interaction of the RGS domain of LARG (LARG-RGS) with mutant constitutively active Gα13. FIG. 1D Potency of FR as inhibitor of signal transduction by constitutively active Gαq or Gα13 detected with an SRE(L) promoter-driven transcriptional reporter. Constitutively active Gαq (Q/L), constitutively active Gαq bearing the indicated FR binding site mutations, and constitutively Gα13 (Q/L) were studied.
(§2) To detect protein-protein interactions, a split luciferase complementation assays was used (23), as employed to study activation state-dependent interaction between Gα subunits and cognate binding partners (24).
(§3) Split luciferase assays were performed as described (24). The N-terminal portion of click beetle green luciferase (CBGN) was inserted into the αB-αC loop within the helical domain of wild type (WT) and constitutively active (Q/L) mutant forms of Gα and Gα13. Insertion of foreign proteins at this site preserves Gαfunction (40). The C-terminal region of click beetle green luciferase (CBGC) was fused to the N-termini of G131 (which was co-expressed with untagged Gγ2), RGS2, and the RGS domain of LARG, which interacts with Gal 3 only in the active GTP-bound state (41). HEK-293 cells transiently transfected with various combinations of tagged proteins were treated 18 h with vehicle(DMSO) or FR and luciferase assays were performed to measure reconstituted luciferase activity.

[1] = target: T2, wild type Gαq interacting with Gβγ2 (Homo sapiens, UniProt P50148); test: as above; format: cell-based; details: HEK-293 cells, 18 h, FIG. 1B, read-out: EC50, increase of split luciferase complementation
T2 construct: expressed in transfected cells; host or cells: HEK-293
T2 sequence (P50148 whole entry): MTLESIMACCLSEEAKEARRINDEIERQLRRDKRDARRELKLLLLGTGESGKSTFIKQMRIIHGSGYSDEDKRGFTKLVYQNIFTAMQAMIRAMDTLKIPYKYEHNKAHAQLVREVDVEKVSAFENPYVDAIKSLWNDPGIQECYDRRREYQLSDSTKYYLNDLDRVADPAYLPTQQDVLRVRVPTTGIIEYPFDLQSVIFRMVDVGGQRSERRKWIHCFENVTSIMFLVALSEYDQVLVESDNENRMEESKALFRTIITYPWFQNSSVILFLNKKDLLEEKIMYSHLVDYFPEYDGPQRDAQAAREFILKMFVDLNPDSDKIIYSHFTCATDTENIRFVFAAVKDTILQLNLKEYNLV
T2 sequence (P59768 2-68, further chain): as the sequence (P59768 2-68) above
T2 sequence (P62873 whole entry, further chain): as the sequence (P62873 whole entry, further chain) above
Source text: as §1, §2, §3

Gαi/q(R54K) = test: In vitro nucleotide exchange (BODIPY-GTPγS fluorescence); format: biochemical; details: Gαi/q(R54K) vs Gαi/q
Gαi/q = target: T3, Gαi/q (Homo sapiens, UniProt P63096, K54R/C351G, form not given); format: cell-based; details: read-out: IC50, attenuation of cannabinoid type 1 receptor inhibition of forskolin-induced cAMP accumulation; via Gαi/q; Neuro2A cells, PTX-treated; FIG. 2C
T3 construct: other: via Gαi/q; the eight substituted residues copy Gαq (GNAQ) but are point changes, not a fused part of Gαq
T3 sequence (P63096 whole entry V50I/K54R/Y69F/V72L/K180P/V185I/T187Y/H188P/C351G, form open, the tested form may be a part): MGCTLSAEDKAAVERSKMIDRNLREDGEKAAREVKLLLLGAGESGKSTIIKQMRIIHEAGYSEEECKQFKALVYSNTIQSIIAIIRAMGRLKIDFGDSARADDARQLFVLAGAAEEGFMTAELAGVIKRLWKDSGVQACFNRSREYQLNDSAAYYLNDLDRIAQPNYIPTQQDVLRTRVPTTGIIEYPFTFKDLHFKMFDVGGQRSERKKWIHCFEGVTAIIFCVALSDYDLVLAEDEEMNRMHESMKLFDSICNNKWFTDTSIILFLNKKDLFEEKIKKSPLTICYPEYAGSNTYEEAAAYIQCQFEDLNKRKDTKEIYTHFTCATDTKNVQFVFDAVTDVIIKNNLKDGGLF

Mel202 cells = test: Melanocytic re-differentiation (morphology, pigmentation, immunostaining); format: cell-based, Human
Procedure: (§4) FIG. 5A Morphological changes elicited by FR. UM cell lines were treated 3 d with FR and imaged by phase contrast microscopy. FR caused UM cells driven by constitutively active Gαq (92.1 and Mel202) to lose their characteristic spindle shaped and assume a stellate shape with multiple projections. FR had no effect on BRAF-driven UM cells (OCM-1A). FIG. 5B Melanocytic differentiation of FR-treated UM cells indicated by pigmentation. UM cell lines were treated 3 d with FR. Cells were pelleted and examined macroscopically. […] Scale bar=50 μm.
(§5) Cell fixation was carried out by adding an equal volume of 2×fixative (PBS with 4% paraformaldehyde and 0.4% glutaraldehyde) to UM cells in RPMI growth medium. After 15 min at 37° C., cells were permeabilized with 0.1% Triton X-100 in PBS for 5 min, washed with PBS, and blocked with 2% fish gelatin (Sigma-Aldrich) in PBS. Primary and secondary antibodies were diluted in 2% fish gelatin in PBS. Primary antibodies included mouse monoclonal anti-pre-melanosomal protein (One World Lab, San Diego, Calif.), rabbit polyclonal anti-tyrosinase (One World Lab), rabbit polyclonal anti-dopachrome tautomerase (One World Lab), rabbit polyclonal anti-S100 (DakoCytomation, Denmark), and mouse monoclonal anti-BrdU (Life Technologies). Secondary antibodies were Alexa-fluor conjugates (Life Technologies), and the mounting agent was ProLong Gold (Life Technologies). Cell morphology was assessed by phase contrast imaging with an inverted microscope (Olympus IX72) using a 10×objective.

OCM-1A cells [2] = test: as above; format: cell-based, Human; details: 3 d FR, FIG. 5A
Procedure: as §4, §5

92.1 cells = test: as above; format: cell-based, Human
Procedure: as §4
Gαq-mutant 92.1 UM cells were treated with FR or vehicle, and RNA was collected 1 and 3 d after treatment for RNA-Seq analysis. FIG. 7A Unsupervised principal component analysis identified FR treatment and time in culture as the two main separable factors contributing to changes in gene expression. […] FIG. 7D FR-repressed genes identified as targets of the polycomb repressive complex 2 by Geneset enrichment analysis. FIG. 7E The Ezh1/2 inhibitor GSK503 blocks the morphological differentiation elicited by FR. 92.1 UM cells were treated 7 d with GSK503 and 3 d with FR and then imaged by phase contrast microscopy. […] 92.1 cells were treated 7 d with GSK503 and 3 d with FR and pelleted. FIG. 7G PRC2 inhibition by GSK503.
as §5

92.1 UM cells = test: UM cell viability, water-soluble tetrazolium salt assay; details: Homo sapiens, read-out: EC50, inhibition of proliferation (viability)
Procedure: Cells were cultured at 37.0 in 5% CO2. […] Cell lines were grown in RPMI 1640 medium (Life Technologies, Carlsbad, Calif.) supplemented with 10% FBS and antibiotics. Cell viability was measured using a water-soluble tetrazolium salt, WTS-8 (Bimake, Houston, Tex.), following the manufacturer's protocol. Flow cytometry for analysis of cell proliferation and apoptosis was performed at the Siteman Cancer Center Flow Cytometry Core on a FACScan analyzer (BD Biosciences, San Diego Calif., USA) using a standard propidium iodide staining protocol as described previously (44).

OCM-1A cells [3] = test: Flow cytometry of DNA content (proliferation and apoptosis); details: 3 d, FIG. 4C-D
Procedure: Cells were cultured at 37.0 in 5% CO2. […] Cell lines were grown in RPMI 1640 medium (Life Technologies, Carlsbad, Calif.) supplemented with 10% FBS and antibiotics. […] Flow cytometry for analysis of cell proliferation and apoptosis was performed at the Siteman Cancer Center Flow Cytometry Core on a FACScan analyzer (BD Biosciences, San Diego Calif., USA) using a standard propidium iodide staining protocol as described previously (44).

SMILES: C=C1C(=O)N[C@@H](C)C(=O)N(C)[C@@H](C)C(=O)N[C@H]([C@@H](OC(=O)[C@@H](NC(=O)CC)[C@H](O)C(C)C)C(C)C)C(=O)N(C)[C@@H]([C@H](C)OC)C(=O)O[C@H](C(C)C)[C@H](NC(C)=O)C(=O)O[C@H](Cc2ccccc2)C(=O)N1C [FR, [(1S)-1-[(3S,6R,9S,12S,18R,21S,22R)-21-acetamido-18-benzyl-3-[(1S)-1-methoxyethyl]-4,9,10,12,16-pentamethyl-15-methylidene-2,5,8,11,14,17,20-heptaoxo-22-propan-2-yl-1,19-dioxa-4,7,10,13,16-pentazacyclodocos-6-yl]-2-methylpropyl] (2S,3R)-3-hydroxy-4-methyl-2-(propanoylamino)pentanoate] (Ac-[X1][dPhLac][NMeDha]A[NMeA][X2](Leu(3R-OH,Nα-propionyl))[NMeaThr](Me); ester 1-C)
- effect on interaction with Gβγ2 (wild type Gα13 with Gβγ2): lack of effect
- EC50 [1]: 3 nM
- fold less potent than toward Gαi/q, nucleotide exchange (Gαi/q(R54K)): ~10 fold
- IC50 (Gαi/q): 25 nM
- cell morphology (phase contrast) (Mel202 cells; 3 d FR, FIG. 5A): morphological changes indicative of re-differentiation
- melanocytic pigmentation (Mel202 cells; 3 d FR, FIG. 5B): strikingly increased
- expression levels of TYR, DCT and PMEL (immunofluorescence) (Mel202 cells; FIG. 5C): increased
- cell morphology (phase contrast) (OCM-1A cells [2]): no effect
- cell morphology (phase contrast) (92.1 cells; 3 d FR, FIG. 5A): morphological changes indicative of re-differentiation
- melanocytic pigmentation (92.1 cells; 3 d FR, FIG. 5B): strikingly increased
- expression levels of TYR, DCT and PMEL (immunofluorescence) (92.1 cells; FIG. 5C): increased
- EC50 (92.1 UM cells): 2 nM
- cell cycle inhibition and apoptosis (OCM-1A cells [3]): no effect
